Tests used:
[1] = tested on: normal NK cells expanded with K562-aAPC; experiment: percent inhibition of viability; higher = more inhibition; conditions: 72 h, IL-2 2.5 ng/mL
Description: (§1)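 Drug sensitivity and resistance testing on K562-aAPC-expanded normal NK cells: 5 concentrations (10-fold steps over a 10,000-fold range), 72 h at 37 °C, viability by CellTiter-Glo normalised to DMSO and benzethonium chloride controls; DSS from the fitted curve.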

DERL-7 (IL-2 2.5 ng/mL) [2] = experiment: as above; conditions: 72 h
IMC-1 (IL-2 20 ng/mL) [3] = experiment: as above; conditions: 72 h
KAI3 (IL-2 2.5 ng/mL) [4] = experiment: as above; conditions: 72 h
KHYG-1 (IL-2 2.5 ng/mL) [5] = experiment: as above; conditions: 72 h
NK-92 (IL-2 2.5 ng/mL) [6] = experiment: as above; conditions: 72 h
NK-YS (IL-2 2.5 ng/mL) [7] = experiment: as above; conditions: 72 h
NKL (IL-2 2.5 ng/mL) [8] = experiment: as above; conditions: 72 h
SNK-6 (IL-2 2.5 ng/mL) [9] = experiment: as above; conditions: 72 h
YT (IL-2 2.5 ng/mL) [10] = experiment: as above; conditions: 72 h
[11] = tested on: normal primary NK cells, pool 1 (3 donors) (IL-2 2.5 ng/mL); experiment: as above; conditions: 72 h
[12] = tested on: normal primary NK cells, pool 1 (3 donors), resting (IL-2 0 ng/mL); experiment: as above; conditions: 72 h
[13] = tested on: normal primary NK cells, pool 2 (3 donors) (IL-2 2.5 ng/mL); experiment: as above; conditions: 72 h
[14] = tested on: normal primary NK cells, pool 3 (3 donors) (IL-2 2.5 ng/mL); experiment: as above; conditions: 72 h
[15] = tested on: normal NK cells expanded with K562-aAPC; experiment: drug sensitivity score (DSS) (DSS units); higher = more sensitive; extreme values may be limits of the assay; conditions: 72 h; IL-2 2.5 ng/mL
Description: as §1

DERL-7 (IL-2 2.5 ng/mL) [16] = experiment: as above; conditions: 72 h
IMC-1 (IL-2 20 ng/mL) [17] = experiment: as above; conditions: 72 h
KAI3 (IL-2 2.5 ng/mL) [18] = experiment: as above; conditions: 72 h
KHYG-1 (IL-2 2.5 ng/mL) [19] = experiment: as above; conditions: 72 h
NK-92 (IL-2 2.5 ng/mL) [20] = experiment: as above; conditions: 72 h
NK-YS (IL-2 2.5 ng/mL) [21] = experiment: as above; conditions: 72 h
NKL (IL-2 2.5 ng/mL) [22] = experiment: as above; conditions: 72 h
SNK-6 (IL-2 2.5 ng/mL) [23] = experiment: as above; conditions: 72 h
YT (IL-2 2.5 ng/mL) [24] = experiment: as above; conditions: 72 h
[25] = tested on: normal primary NK cells, pool 1 (3 donors) (IL-2 2.5 ng/mL); experiment: as above; conditions: 72 h
[26] = tested on: normal primary NK cells, pool 1 (3 donors), resting (IL-2 0 ng/mL); experiment: as above; conditions: 72 h
[27] = tested on: normal primary NK cells, pool 2 (3 donors) (IL-2 2.5 ng/mL); experiment: as above; conditions: 72 h
[28] = tested on: normal primary NK cells, pool 3 (3 donors) (IL-2 2.5 ng/mL); experiment: as above; conditions: 72 h

CNC(=O)c1ccc(N2C(=S)N(c3ccc(C#N)c(C(F)(F)F)c3)C(=O)C2(C)C)cc1F [Enzalutamide] (max concentration tested 10000 nM)
percent inhibition of viability [%]
Conditions	1 nM	10 nM	100 nM	1000 nM	10000 nM
DERL-7 (IL-2 2.5 ng/mL) [2]	-1.7	-4.09	-9.3	-2.76	-5
IMC-1 (IL-2 20 ng/mL) [3]	-3.38	0.92	-2.2	-1.9	18.3
KAI3 (IL-2 2.5 ng/mL) [4]	-6.43	-7.59	-3.84	-14.2	-5.9
KHYG-1 (IL-2 2.5 ng/mL) [5]	-6.93	-4.23	-3.55	-6.97	4.84
NK-92 (IL-2 2.5 ng/mL) [6]	1.65	-8.18	-6.81	-3.14	20.8
NK-YS (IL-2 2.5 ng/mL) [7]	-6.5	-3.69	-3.22	-8.67	5.9
NKL (IL-2 2.5 ng/mL) [8]	-2.17	-13.2	-14	-9.34	1.3
SNK-6 (IL-2 2.5 ng/mL) [9]	12.3	20.8	-9.97	42.2	17.6
YT (IL-2 2.5 ng/mL) [10]	-1.41	-1.46	-3.16	-4.82	3.56
[1]	-2.32	-10.8	-8.2	-6.11	-8.96
[11]	-3.9	0.9	-0.41	-2.29	4.21
[12]	7.62	-0.58	-1.62	6.1	31.6
[13]	-10.2	-3.87	-13.1	-6.47	3.77
[14]	-14.6	-16.8	-6.74	-9.3	-4.81

Conditions	drug sensitivity score
DERL-7 (IL-2 2.5 ng/mL) [16]	0
IMC-1 (IL-2 20 ng/mL) [17]	0.37
KAI3 (IL-2 2.5 ng/mL) [18]	0
KHYG-1 (IL-2 2.5 ng/mL) [19]	0
NK-92 (IL-2 2.5 ng/mL) [20]	0.49
NK-YS (IL-2 2.5 ng/mL) [21]	0
NKL (IL-2 2.5 ng/mL) [22]	0
SNK-6 (IL-2 2.5 ng/mL) [23]	4.37
YT (IL-2 2.5 ng/mL) [24]	0
[15]	0
[25]	0
[26]	2.39
[27]	0
[28]	0

O=c1[nH]c(=O)n([C@H]2C[C@H](O)[C@@H](CO)O2)cc1F [Floxuridine] (max concentration tested 10000 nM)
percent inhibition of viability [%]
Conditions	1 nM	10 nM	100 nM	1000 nM	10000 nM
DERL-7 (IL-2 2.5 ng/mL) [2]	-7.14	68.8	44.1	69.8	94.3
IMC-1 (IL-2 20 ng/mL) [3]	-2.91	-1.68	33.5	96.1	95.4
KAI3 (IL-2 2.5 ng/mL) [4]	-6.31	31.3	63.4	63.7	45.6
KHYG-1 (IL-2 2.5 ng/mL) [5]	0.05	58.9	96.8	99.1	95.1
NK-92 (IL-2 2.5 ng/mL) [6]	-16.2	25.2	72.5	82.6	78.8
NK-YS (IL-2 2.5 ng/mL) [7]	-4.95	13.6	73.5	84	78.7
NKL (IL-2 2.5 ng/mL) [8]	-14.5	15.7	48.8	68.5	82.9
SNK-6 (IL-2 2.5 ng/mL) [9]	15.3	9.27	54	91.8	89.4
YT (IL-2 2.5 ng/mL) [10]	-3.94	0.97	9.92	50.2	57.9
[1]	-4.55	-4.54	25.1	39.5	43.4
[11]	-6.27	-7.98	-5.58	6.75	5.43
[12]	-14.4	-13.5	-18.7	8.19	9.19
[13]	-16.1	-13.4	-7.65	-1.05	8.12
[14]	-14	-7.11	-9.62	-2.43	-3.12

Conditions	drug sensitivity score
DERL-7 (IL-2 2.5 ng/mL) [16]	25.9
IMC-1 (IL-2 20 ng/mL) [17]	22
KAI3 (IL-2 2.5 ng/mL) [18]	24
KHYG-1 (IL-2 2.5 ng/mL) [19]	37.2
NK-92 (IL-2 2.5 ng/mL) [20]	27.2
NK-YS (IL-2 2.5 ng/mL) [21]	25.9
NKL (IL-2 2.5 ng/mL) [22]	20.2
SNK-6 (IL-2 2.5 ng/mL) [23]	23.3
YT (IL-2 2.5 ng/mL) [24]	10.4
[15]	10.9
[25]	0
[26]	0
[27]	0
[28]	0

CCCOc1ccn2c(C(C)=O)cc(-c3ccccc3S(C)(=O)=O)c2c1 [GSK2801] (max concentration tested 10000 nM)
percent inhibition of viability [%]
Conditions	1 nM	10 nM	100 nM	1000 nM	10000 nM
DERL-7 (IL-2 2.5 ng/mL) [2]	3.66	0.68	6.46	3.78	26.7
IMC-1 (IL-2 20 ng/mL) [3]	-5.58	-4	-5.67	-6.64	-7.6
KAI3 (IL-2 2.5 ng/mL) [4]	-0.66	1.6	3.26	1.19	13.8
KHYG-1 (IL-2 2.5 ng/mL) [5]	-6.23	-1.14	-4.5	-0.03	3.02
NK-92 (IL-2 2.5 ng/mL) [6]	13.2	-11.5	-4.85	-3.31	1.17
NK-YS (IL-2 2.5 ng/mL) [7]	-2.46	-2.16	-2.35	-0.19	12.5
NKL (IL-2 2.5 ng/mL) [8]	-3.96	-3.81	7.18	-1.4	23.3
SNK-6 (IL-2 2.5 ng/mL) [9]	9.8	1.5	0.45	0.35	15.4
YT (IL-2 2.5 ng/mL) [10]	-2.89	-0.79	-3.2	1.49	5.33
[1]	0.95	-8.4	-3.92	-5.08	3.93
[11]	-8.08	-8.31	-8.28	1.69	18.7
[12]	-9.69	-17.6	-10.8	10.7	38
[13]	-4.35	-4.55	-1.61	-2.13	14.3
[14]	-5.87	2.4	-5.15	-6.31	4.35

Conditions	drug sensitivity score
DERL-7 (IL-2 2.5 ng/mL) [16]	1.67
IMC-1 (IL-2 20 ng/mL) [17]	0
KAI3 (IL-2 2.5 ng/mL) [18]	0.24
KHYG-1 (IL-2 2.5 ng/mL) [19]	0
NK-92 (IL-2 2.5 ng/mL) [20]	0
NK-YS (IL-2 2.5 ng/mL) [21]	0.07
NKL (IL-2 2.5 ng/mL) [22]	0.73
SNK-6 (IL-2 2.5 ng/mL) [23]	0.29
YT (IL-2 2.5 ng/mL) [24]	0
[15]	0
[25]	0.69
[26]	3.45
[27]	0.12
[28]	0
